How the values were obtained:
Assay type in all cases: cell-based
microorganisms = test: In vitro antimicrobial activity test, whole panel of test organisms; details: across the test organisms of TABLE 3
Method: (§1) The activity of the compounds of the present invention was evaluated using an in vitro assay. Microorganisms were prepared from growth on agar media, in broth culture, or from thawed cryopreserved cultures. Fungal cultures were filtered to remove mycelial elements.
(§2) Using Mueller Hinton II Broth, 0.9% saline or other appropriate media, a suspension of each culture was prepared and adjusted to a turbidity equivalent to that of a 0.5 McFarland Standard. (Cultures adjusted to the 0.5 McFarland Standard generally contain approximately 1.0×10^8 CFU/mL). The adjusted suspension for each culture was diluted 1:10 in the appropriate media so that the inoculum concentration approximates 1.0×10^7 CFU/mL.
(§3) The antimicrobial agent to be tested was weighed and diluted with a volume of sterile distilled water calculated to yield the necessary starting concentration. Serial 1:2 dilutions of the antimicrobial agent in sterile distilled water were prepared (approximately 10-12 test concentrations comprise a reasonable experimental range). A known amount of each antimicrobial dilution was combined with an aliquot of agar medium calculated to yield the desired final antimicrobial test concentration and dispensed onto plates.
(§4) The amount of antimicrobial agent to be weighed was determined using the following equation: […]
(§5) Antimicrobial stock solutions were prepared at concentrations 5-10 times the highest concentration to be tested (routinely 1024 μg/mL). […] The stock solution was diluted to appropriate concentration using sterile water to form a working solution. The working solution was diluted two-fold, in sterile water, until the desired concentration is obtained.
Mueller Hinton II agar was prepared as described by the manufacturer. Mueller Hinton II agar may be supplemented with 5% defibrinated sheep blood for testing streptococci. Agar was added to the serially diluted antimicrobial solution in each container. The solutions were mixed thoroughly and poured into petri dishes (about 25 mL/plate). The pH of the agar at 25° C. should be between 7.2 and 7.4. […]

Acinetobacter baumannii = test: In vitro antimicrobial activity, agar dilution MIC; details: test organism 26, Acinetobacter baumannii
Method: as §1, §2, §3, §4, §5
(§6) Mueller Hinton II agar was prepared as described by the manufacturer. Mueller Hinton II agar may be supplemented with 5% defibrinated sheep blood for testing streptococci. Agar was added to the serially diluted antimicrobial solution in each container. The solutions were mixed thoroughly and poured into petri dishes (about 25 mL/plate). The pH of the agar at 25° C. should be between 7.2 and 7.4.
(§7) At least one inocula control plate was inoculated (agar medium without antimicrobial agent) from each seed plate before inoculating test plates. Test plates were inoculated starting at the lowest concentration and proceeding to the highest concentration. After all test plates were inoculated, an additional control plate (agar medium without antimicrobial agent) was inoculated. The plates were incubated in a non-CO2 incubator (or CO2 incubator depending on growth requirements); 18-24 hours at 32-35° C. was sufficient for most organisms.
(§8) All inoculation points on the agar surface were examined for the presence of growth as compared to the inoculum control plates. The results were summarized and use to determine Minimal Inhibitory Concentrations (MICs): The MIC is the lowest concentration of the antimicrobial agent which prevents visible growth of the organism (negative score).

Streptococcus mitis = test: In vitro antimicrobial activity, agar dilution MIC
Method: as §1, §2, §3, §4, §5, §6, §7, §8

[1] = tested on: Stenotrophomonas maltophilia; test: In vitro antimicrobial activity, agar dilution MIC
Method: as §1, §2, §3, §4, §5, §6, §7, §8

Streptococcus pneumoniae = test: In vitro antimicrobial activity, agar dilution MIC
Method: as §1, §2, §3, §4, §5, §6, §7, §8

MRSA = test: In vitro antimicrobial activity, agar dilution MIC
Method: as §1, §2, §3, §4, §5, §6, §7, §8

[2] = tested on: Staphylococcus haemolyticus; test: In vitro antimicrobial activity, agar dilution MIC
Method: as §1, §2, §3, §4, §5, §6, §7, §8

MRSE = test: In vitro antimicrobial activity, agar dilution MIC
Method: as §1, §2, §3, §4, §5, §6, §7, §8

Enterococcus faecalis = test: In vitro antimicrobial activity, agar dilution MIC
Method: as §1, §2, §3, §4, §5, §6, §7, §8

Morganella morganii = test: In vitro antimicrobial activity, agar dilution MIC
Method: as §1, §2, §3, §4, §5, §6, §7, §8

[3] = tested on: Staphylococcus epidermidis; test: In vitro antimicrobial activity, agar dilution MIC
Method: as §1, §2, §3, §4, §5, §6, §7, §8

MSSA = test: In vitro antimicrobial activity, agar dilution MIC; details: test organism 6, MSSA
Method: as §1, §2, §3, §4, §5, §6, §7, §8

Enterobacter hormaechei = test: In vitro antimicrobial activity, agar dilution MIC; details: test organism 31, Enterobacter hormaechei
Method: as §1, §2, §3, §4, §5, §6, §7, §8

[4] = tested on: Corynebacterium amycolatum; test: In vitro antimicrobial activity, agar dilution MIC
Method: as §1, §2, §3, §4, §5, §6, §7, §8

Pseudomonas aeruginosa = test: In vitro antimicrobial activity, agar dilution MIC
Method: as §1, §2, §3, §4, §5, §6, §7, §8

Acinetobacter junii = test: In vitro antimicrobial activity, agar dilution MIC
Method: as §1, §2, §3, §4, §5, §6, §7, §8

Serratia marcescens = test: In vitro antimicrobial activity, agar dilution MIC
Method: as §1, §2, §3, §4, §5, §6, §7, §8

Staphylococcus aureus = test: In vitro antimicrobial activity, agar dilution MIC
Method: as §1, §2, §3, §4, §5, §6, §7, §8

Escherichia coli = test: In vitro antimicrobial activity, agar dilution MIC
Method: as §1, §2, §3, §4, §5, §6, §7, §8

Question: For `Nc1c(F)c(N2CC3CCCNC3C2)c(F)c2c1c(=O)c(C(=O)O)cn2C1CC1` (stereo not drawn) [Compound 3], which “antimicrobial activity compared to moxifloxacin (in words)” value (microorganisms) is on record?
Answer: The value was “showed increased antimicrobial activity against most microorganisms”.

Question: How did the “Minimal Inhibitory Concentration (MIC)” value (Acinetobacter baumannii) turn out when moxifloxacin [reference compound] was run?
Answer: Its value is “≦0.25”.

Question: What about the “Minimal Inhibitory Concentration (MIC)” value (Streptococcus mitis; test organism 21, Streptococcus mitis) of the same compound?
Answer: Its value is “≦0.25”.

Question: And the “Minimal Inhibitory Concentration (MIC)” value (Streptococcus mitis; test organism 22, Streptococcus mitis)?
Answer: Its value is 0.125.

Question: What about the “Minimal Inhibitory Concentration (MIC)” value (Streptococcus mitis; test organism 23, Streptococcus mitis) of the same compound?
Answer: Its value is 4.

Question: And the “Minimal Inhibitory Concentration (MIC)” value ([1]; test organism 41, Stenotrophomonas maltophilia)?
Answer: Its value is >4.

Question: And the “Minimal Inhibitory Concentration (MIC)” value ([1]; test organism 42, Stenotrophomonas maltophilia)?
Answer: Its value is 0.125.

Question: And the “Minimal Inhibitory Concentration (MIC)” value (Streptococcus pneumoniae; test organism 19, Streptococcus pneumoniae)?
Answer: The value was 0.25.

Question: And the “Minimal Inhibitory Concentration (MIC)” value (Streptococcus pneumoniae; test organism 20, Streptococcus pneumoniae)?
Answer: Its value is “≦0.25”.

Question: And the “Minimal Inhibitory Concentration (MIC)” value (MRSA; test organism 3, MRSA)?
Answer: Its value is 2.

Question: And the “Minimal Inhibitory Concentration (MIC)” value (MRSA; test organism 4, MRSA)?
Answer: Its value is 4.

Question: What about the “Minimal Inhibitory Concentration (MIC)” value (MRSA; test organism 5, MRSA) of the same compound?
Answer: The value was >2.

Question: What about the “Minimal Inhibitory Concentration (MIC)” value ([2]; test organism 12, Staphylococcus haemolyticus) of the same compound?
Answer: Its value is 0.5.

Question: What about the “Minimal Inhibitory Concentration (MIC)” value ([2]; test organism 13, Staphylococcus haemolyticus) of the same compound?
Answer: Its value is 2.

Question: And the “Minimal Inhibitory Concentration (MIC)” value ([2]; test organism 14, Staphylococcus haemolyticus)?
Answer: Its value is >4.

Question: And the “Minimal Inhibitory Concentration (MIC)” value (MRSE; test organism 9, MRSE)?
Answer: The value was >2.

Question: What about the “Minimal Inhibitory Concentration (MIC)” value (MRSE; test organism 10, MRSE) of the same compound?
Answer: The value was >2.

Question: What about the “Minimal Inhibitory Concentration (MIC)” value (MRSE; test organism 11, MRSE) of the same compound?
Answer: Its value is >4.

Question: What about the “Minimal Inhibitory Concentration (MIC)” value (Enterococcus faecalis; test organism 15, Enterococcus faecalis) of the same compound?
Answer: Its value is 0.5.

Question: What about the “Minimal Inhibitory Concentration (MIC)” value (Enterococcus faecalis; test organism 16, Enterococcus faecalis) of the same compound?
Answer: The value was “≦0.25”.

Question: And the “Minimal Inhibitory Concentration (MIC)” value (Enterococcus faecalis; test organism 17, Enterococcus faecalis)?
Answer: The value was >4.

Question: What about the “Minimal Inhibitory Concentration (MIC)” value (Enterococcus faecalis; test organism 18, Enterococcus faecalis) of the same compound?
Answer: The value was >2.

Question: What about the “Minimal Inhibitory Concentration (MIC)” value (Morganella morganii; test organism 35, Morganella morganii) of the same compound?
Answer: Its value is 0.5.

Question: What about the “Minimal Inhibitory Concentration (MIC)” value (Morganella morganii; test organism 36, Morganella morganii) of the same compound?
Answer: Its value is 4.

Question: What about the “Minimal Inhibitory Concentration (MIC)” value ([3]; test organism 7, Staphylococcus epidermidis) of the same compound?
Answer: The value was 0.06.

Question: What about the “Minimal Inhibitory Concentration (MIC)” value ([3]; test organism 8, Staphylococcus epidermidis) of the same compound?
Answer: Its value is 1.

Question: What about the “Minimal Inhibitory Concentration (MIC)” value (MSSA) of the same compound?
Answer: Its value is >4.

Question: What about the “Minimal Inhibitory Concentration (MIC)” value (Enterobacter hormaechei) of the same compound?
Answer: Its value is >4.

Question: What about the “Minimal Inhibitory Concentration (MIC)” value ([4]; test organism 24, Corynebacterium amycolatum) of the same compound?
Answer: The value was 0.03.

Question: And the “Minimal Inhibitory Concentration (MIC)” value ([4]; test organism 25, Corynebacterium amycolatum)?
Answer: The value was >4.

Question: And the “Minimal Inhibitory Concentration (MIC)” value (Pseudomonas aeruginosa; test organism 37, Pseudomonas aeruginosa)?
Answer: Its value is >4.

Question: And the “Minimal Inhibitory Concentration (MIC)” value (Pseudomonas aeruginosa; test organism 38, Pseudomonas aeruginosa)?
Answer: Its value is 4.

Question: What about the “Minimal Inhibitory Concentration (MIC)” value (Acinetobacter junii; test organism 27, Acinetobacter junii) of the same compound?
Answer: Its value is “≦0.25”.

Question: What about the “Minimal Inhibitory Concentration (MIC)” value (Acinetobacter junii; test organism 28, Acinetobacter junii) of the same compound?
Answer: Its value is 0.25.

Question: What about the “Minimal Inhibitory Concentration (MIC)” value (Acinetobacter junii; test organism 29, Acinetobacter junii) of the same compound?
Answer: Its value is >4.

Question: And the “Minimal Inhibitory Concentration (MIC)” value (Serratia marcescens; test organism 39, Serratia marcescens)?
Answer: The value was 2.

Question: What about the “Minimal Inhibitory Concentration (MIC)” value (Serratia marcescens; test organism 40, Serratia marcescens) of the same compound?
Answer: The value was 2.

Question: What about the “Minimal Inhibitory Concentration (MIC)” value (Staphylococcus aureus; test organism 1, Staphylococcus aureus) of the same compound?
Answer: Its value is 0.06.

Question: And the “Minimal Inhibitory Concentration (MIC)” value (Staphylococcus aureus; test organism 2, Staphylococcus aureus)?
Answer: The value was “≦0.25”.

Question: What about the “Minimal Inhibitory Concentration (MIC)” value (Escherichia coli; test organism 32, Escherichia coli) of the same compound?
Answer: Its value is 0.125.

Question: What about the “Minimal Inhibitory Concentration (MIC)” value (Escherichia coli; test organism 33, Escherichia coli) of the same compound?
Answer: Its value is “≦0.25”.

Question: What about the “Minimal Inhibitory Concentration (MIC)” value (Escherichia coli; test organism 34, Escherichia coli) of the same compound?
Answer: The value was >4.

Source: patent publication US20120108557A1, “FLUOROQUINOLONE DERIVATIVES FOR OPHTHALMIC APPLICATIONS” (ALCON RESEARCH, LTD., priority 2008, published 2012)
